Columns and labels:
Aβ = Aβ ELISA, brain of injected wild-type mice; format: in vivo; conditions: 15 or 30 mg/kg i.p. daily for 2 weeks (both doses)
Procedure: Aβ ELISA. Mouse brains were homogenized in tissue homogenization buffer containing 250 mM sucrose, 20 mM Tris base, protease, and phosphatase inhibitors. To measure soluble Aβ, DEA extraction was performed. Crude 10% homogenate was mixed with an equal volume of 0.4% diethylamine (DEA), sonicated, and ultracentrifuged for 1 hr at 100,000×g. The supernatant was collected and neutralized with 10% 0.5 M Tris, pH 6.8. Sensitive and specific ELISAs to rodent Aβ1-40 was purchased from IBL Transatlantic (Toronto, Canada) and conducted per the manufacturer's protocol.
To test whether BTA-EG4 alters Aβ production in vitro, primary cortical neurons were treated with BTA-EG4 (1 or 5 μM) or control (10% DMSO), and Aβ levels were measured using ELISA. […] We then examined whether BTA-EG4 can alter Aβ levels in vivo by injecting wild-type mice daily for 2 weeks with BTA-EG4 (15 or 30 mg/kg, 10% DMSO in saline, i.p.). […] Furthermore, BTA-EG4 altered APP processing in vivo, as monitored by increased sAPPα (α-secretase cleavage product) and decreased sAPPβ (β-secretase cleavage product) levels in BTA-EG4 injected wild-type mice (30 mg/kg, i.p) compared to control-injected mice (FIGS. 1E, 1F).

SC and TA inputs to CA1 = test: Field potential recordings and LTP, acute hippocampal slices of injected mice; format: in vivo, wild-type mice
Procedure: Electrophysiology. Transverse [for Schaffer collateral (SC) input studies] or horizontal [for temporammonic (TA) input studies] hippocampal slices (400-μm thick) were prepared from adult mice. Slices were made using ice-cold dissection buffer (in mM: 212.7 sucrose, 2.6KCl, 1.23NaH2PO4, 10 dextrose, 3MgCl2 and 1CaCl2; 5% CO2/95% O2), and recordings were done in a submersion-type chamber perfused with artificial cerebrospinal fluid (ACSF, in mM: 124NaCl, 5KCl, 1.25NaH2PO4, 26NaHCO3, 10 dextrose, 1.5MgCl2, and 2.5CaCl2; 5% CO2/95% O2, 29.5-30.5° C., 2 ml/min). For field potential recordings, synaptic responses were evoked using 0.2 ms duration pulses delivered through a bipolar glass stimulating electrode at 0.0333 Hz. A train of TBS consisted of a burst of 4 pulses at 100 Hz repeated 10 times at 5 Hz. For 4× TBS, 4 trains of TBS were given at 10 sec inter-train-intervals. For whole cell recordings, slices were transferred to a submersion-type recording chamber mounted on a fixed stage of an upright microscope (E600 FN; Nikon, Tokyo, Japan) with IR oblique illumination. […]. These neurons were patched using a whole cell patch pipette (tip resistance 3-5 MΩ), which was filled with internal solution (in mM: 120 Cs-methanesulfonate, 5MgCl2, 8NaCl, 1 EGTA, 10 HEPES, 2 Mg.ATP, 0.5Na3GTP and 1 QX-314; pH 7.3, 280-290 mOsm). Recording was initiated 2-3 min after break-in, and each cell was recorded for 10-15 min to collect enough mEPSCs for analysis. The Axon patch-clamp amplifier 700B (Molecular Devices, Union City, Calif.) was used for voltage-clamp recordings. Cells were held at −70 mV, and the recorded mEPSC data were digitized at 10 kHz with a data acquisition board (National Instruments, Austin, Tex.) and acquired through custom-made programs using the Igor Pro software (WaveMetrics, Lake Oswego, Oreg.). The MiniAnalysis program (Synaptosoft, Decatur, Ga.) was used to analyze the acquired mEPSCs. The threshold for detecting mEPSCs was set at three times the root mean square (RMS) noise. […] Recordings were excluded from analysis if the RMS noise was <2, the series resistance was […], and input resistance was >100 MΩ. To minimize the impact of dendritic filtering, we adopted the standard approach of excluding mEPSCs with rise time >3 ms, as well as cells showing a negative correlation between mEPSC amplitude and rise time (Rall, 1969). Only about 4% of the total recorded cells (at most 1 cell per experimental group) were excluded due to negative correlation between mEPSC rise and amplitude. One hundred consecutive mEPSCs that met the rise time criteria were analyzed from each cell. AMPAR- and NMDAR-mediated currents were measured at −70 and +40 mV, respectively. AMPAR mediated EPSC amplitudes were measured at the peak of the current at −70 mV. NMDAR mediated EPSC amplitudes were measured 100 ms after the stimulation artifact. Data are means±SE. Student's t-test was used for two-group comparisons. For all statistical tests, P<0.05 was considered statistically significant.
Therefore, we examined whether improved cognitive performance following BTA-EG4 treatment is associated with altered synaptic function and plasticity. We conducted electrophysiology experiments in an acute hippocampal slice preparation from wild-type mice injected with BTA-EG4 (30 mg/kg, i.p.) or control solution (10% DMSO, i.p) for 2 weeks. […] Long-term potentiation (LTP) was either normal or reduced, depending on the induction protocol (FIGS. 3C-3D). […] There was also not a change in presynaptic function (FIG. 3I).

Ras = test: GST-Raf1-RBD pulldown of active Ras, primary cortical neurons; format: cell-based; conditions: 5 μM
Procedure: GST-pull-down assay. To measure levels of active Ras, brain lysate homogenized with Ral buffer (25 mM Tris-HCl, pH 7.4, 250 mM NaCl, 0.5% NP40, 1.25 mM MgCl2, and 5% glycerol) from APP transgenic, APP knockout, or wild-type mice was incubated with GST-Raf-RBD purified protein coupled with GLUTATHIONE SEPHAROSE™ (Amersham) overnight at 4° C. After 24 hours, pellets were washed with Ral buffer and western blotting was conducted with anti-Ras.
We next investigated the molecular mechanism by which BTA-EG4 may alter dendritic spine formation. Ras, a small GTPase, is involved in dendritic spine formation and synaptic delivery of AMPA receptors (Zhu et al., 2002; Lee et al., 2011). Moreover, abnormal Ras signaling is associated with neurodegenerative disease, causing cognitive impairments and learning deficits (Stornetta and Zhu, 2011). Thus, we initially investigated the effect of BTA-EG4 on Ras signaling by treating primary hippocampal neurons with BTA-EG4 (5 μM) or control for 24 hrs. […] Further, levels of active Ras were elevated following BTA-EG4 treatment (5 μM) in primary cortical neurons (FIG. 7C) and following BTA-EG4 treatment (30 mg/kg) in wild-type mice (FIG. 7D). We also examined whether BTA-EG4 can alter the activity of downstream Ras signaling proteins, including p-ERK and p-CREB.

[1] = test system: insulin-degrading enzyme (IDE), neprilysin (NPE); test: Levels of Aβ degradation enzymes (data not shown)
[2] = SC inputs to CA1, 30 mg/kg i.p., 2 weeks

With BTA-EG4 the “Aβ peptide levels in brain” value (Aβ) was “significantly decreased”, the “summation of synaptic responses during the LTP induction protocol” value (SC and TA inputs to CA1; SC inputs to CA1) was “reduced” and the “magnitude of LTP” value (SC and TA inputs to CA1; SC inputs to CA1, induced by 1× TBS) was “No difference”. For the same substance, the “magnitude of LTP” value (SC and TA inputs to CA1; SC inputs to CA1, induced by 4× TBS) was “reduction”, the basal synaptic transmission (SC and TA inputs to CA1; [2]) was “did not alter” and the presynaptic function (SC and TA inputs to CA1; [2]) was “did not alter”. For the same substance, the presynaptic function (SC and TA inputs to CA1; TA inputs to CA1) was “not a change”, the “response summation during the induction protocol” value (SC and TA inputs to CA1; TA inputs to CA1) was “absence of a change” and the “synaptic transmission normalized to presynaptic fiber volley amplitude” value (SC and TA inputs to CA1; TA inputs to CA1) was “no difference”. For the same substance, the TA-LTP (SC and TA inputs to CA1; TA inputs to CA1, at 1 h post-LTP, CTRL 120±2.1%) was 109±1.2%, the “ability to recruit presynaptic axons per stimulation intensity” value (SC and TA inputs to CA1; TA inputs to CA1, 30 mg/kg i.p.) was “reduced” and the “levels of active Ras” value (Ras) was “elevated”. The “levels of Aβ degradation enzymes (IDE, NPE)” value [1] was “did not alter”.

From patent publication US20160000762A1, “IMPROVING COGNITIVE FUNCTION” (THE REGENTS OF THE UNIVERSITY OF CALIFORNIA, priority 2013, published 2016)
